Patent US10995091B2 (Proximagen, LLC, priority 2010, dated 2021)
pKi: −log10 of the molar value.

Target: T1, Human CXCR4 transfected HEK293 cells (Homo sapiens, UniProt P61073)
T1 construct: expressed in transfected cells; host or cells: HEK293
Experiment: CXCR4 functional calcium assay (calcium flux FLIPR, antagonism of SDF1 response)
Assay type: cell-based
Conditions: CXCR4 functional activity, antagonism of SDF1 (EC50 concentration), read-out: CXCR4 fKi
How it was run: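 Dose-dependent antagonism of the SDF1 response was read by FLIPR as Fluo-4 calcium signal (2 μM dye) in CXCR4-expressing human HEK293 cells, in HBSS with probenecid, BSA and HEPES at pH 7.4 and 37° C. Test compound was given before an EC50-level SDF1 challenge. Curves were then fitted.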

T1 sequence (P61073 whole entry): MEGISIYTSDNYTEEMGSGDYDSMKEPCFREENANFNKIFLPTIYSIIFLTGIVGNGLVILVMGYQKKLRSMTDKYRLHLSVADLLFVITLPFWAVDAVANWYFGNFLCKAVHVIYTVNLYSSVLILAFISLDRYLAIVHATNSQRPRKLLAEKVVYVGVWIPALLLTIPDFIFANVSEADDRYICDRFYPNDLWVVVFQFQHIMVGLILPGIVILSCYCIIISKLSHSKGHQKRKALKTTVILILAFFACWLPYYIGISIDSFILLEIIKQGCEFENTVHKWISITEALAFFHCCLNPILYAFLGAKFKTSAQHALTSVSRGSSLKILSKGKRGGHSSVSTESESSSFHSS

Cc1nc(-c2cccc(N3CC[C@@H](NC[C@@H]4CCN(C5CCCC5)C4)C3)n2)[nH]c1C1CC1 [Example 224, (3R)—N-{[(3S)-1-Cyclopentylpyrrolidin-3-yl]methyl}-1-[6-(4-cyclopropyl-5-methyl-1H-imidazol-2-yl)pyridin-2-yl]pyrrolidin-3-amine]
pKi: > 7.70

Cc1nc(-c2cccc(N3CC[C@@H](NC[C@H]4CCN(C5CCCC5)C4)C3)n2)[nH]c1C1CC1 [Example 225, (3R)—N-{[(3R)-1-Cyclopentylpyrrolidin-3-yl]methyl}-1-[6-(4-cyclopropyl-5-methyl-1H-imidazol-2-yl)pyridin-2-yl]pyrrolidin-3-amine]
pKi: > 7.70

O=C(Nc1ccncc1)c1cccc(N2CC[C@@H](NC[C@@H]3CCN(C4CCCC4)C3)C2)n1 [Example 226, 6-[(3R)-3-({[(3S)-1-Cyclopentylpyrrolidin-3-yl]methyl}amino)pyrrolidin-1-yl]-N-(pyridin-4-yl)pyridine-2-carboxamide]
pKi: > 7.70

O=C(Nc1ccncc1)c1cccc(N2CC[C@@H](NC[C@H]3CCN(C4CCCC4)C3)C2)n1 [Example 227, 6-[(3R)-3-({[(3R)-1-Cyclopentylpyrrolidin-3-yl]methyl}amino)pyrrolidin-1-yl]-N-(pyridin-4-yl)pyridine-2-carboxamide]
pKi: > 7.70

O=C(Nc1ccncc1)c1cccc(N2CC[C@@H](NCC3CCN(C4CCCC4)CC3)C2)n1 [Example 228, 6-[(3R)-3-{[(1-Cyclopentylpiperidin-4-yl)methyl]amino}pyrrolidin-1-yl]-N-(pyridin-4-yl)pyridine-2-carboxamide]
pKi: > 7.70

c1cc(NCCNCC2CCN(C3CCCC3)C2)nc(-c2ncc(C3CC3)[nH]2)c1 (centres unmarked) [Example 229, [(1-Cyclopentylpyrrolidin-3-yl)methyl](2-{[6-(5-cyclopropyl-1H-imidazol-2-yl)pyridin-2-yl]amino}ethyl)amine]
pKi: 6.30 to 7.00

c1cc(NCCNC2CCCN(C3CCCC3)C2)nc(-c2ncc(C3CC3)[nH]2)c1 (centres unmarked) [Example 230, 1-Cyclopentyl-N-(2-{[6-(5-cyclopropyl-1H-imidazol-2-yl)pyridin-2-yl]amino}ethyl)piperidin-3-amine]
pKi: 6.30 to 7.00

Cc1nc(-c2cccc(NCCNC3CCCN(C4CCCC4)C3)n2)[nH]c1C1CC1 (centres unmarked) [Example 231, N-{2-[(1-Cyclopentylpiperidin-3-yl)amino]ethyl}-6-(5-cyclopropyl-4-methyl-1H-imidazol-2-yl)pyridin-2-amine]
pKi: 6.30 to 7.00

Cc1nc(-c2cccc(NCCNC3CCN(C4CCCC4)CC3)n2)[nH]c1C1CC1 [Example 232, 1-Cyclopentyl-N-(2-{[6-(5-cyclopropyl-4-methyl-1H-imidazol-2-yl)pyridin-2-yl]amino}ethyl)piperidin-4-amine]
pKi: 6.30 to 7.00

c1cc(NCCNC2CCN(C3CCCC3)C2)nc(-c2ncc(C3CC3)[nH]2)c1 (centres unmarked) [Example 233, N-{2-[(1-Cyclopentylpyrrolidin-3-yl)amino]ethyl}-6-(5-cyclopropyl-1H-imidazol-2-yl)pyridin-2-amine]
pKi: 6.00 to 6.30

CC(C)N1CCCC(NCCNc2cccc(C(=O)Nc3ccncc3)n2)CC1 (centres unmarked) [Example 234, 6-[(2-{[1-(Propan-2-yl)azepan-4-yl]amino}ethyl)amino]-N-(pyridin-4-yl)pyridine-2-carboxamide]
pKi: 6.30 to 7.00

CCc1cnc(-c2cccc(NCCNC3CCN([C@H](C)CC)CC3)n2)[nH]1 [Example 235, 1-[(2R)-Butan-2-yl]-N-(2-{[6-(4-ethyl-1H-imidazol-2-yl)pyridin-2-yl]amino}ethyl)piperidin-4-amine]
pKi: 6.30 to 7.00

Cc1nc(-c2cccc(NCCNC3CCN(C(C)C)CC3)n2)[nH]c1C1CC1 [Example 236, N-(2-{[6-(5-Cyclopropyl-4-methyl-1H-imidazol-2-yl)pyridin-2-yl]amino}ethyl)-1-(propan-2-yl)piperidin-4-amine]
pKi: 6.30 to 7.00

c1cc(NCCNCCCNC2CCCC2)nc(-c2ncc(C3CC3)[nH]2)c1 [Example 237, N-(2-{[3-(Cyclopentylamino)propyl]amino}ethyl)-6-(5-cyclopropyl-1H-imidazol-2-yl)pyridin-2-amine]
pKi: 6.30 to 7.00

CC(C)N1CCCC(N(C)CCN(C)c2cccc(C(=O)Nc3ccncc3)n2)CC1 (centres unmarked) [Example 238, 6-[Methyl(2-{methyl[1-(propan-2-yl)azepan-4-yl]amino}ethyl)amino]-N-(pyridin-4-yl)pyridine-2-carboxamide]
pKi: 6.30 to 7.00

CC(C)N1CCC(NCCCNc2cccc(C(=O)Nc3ccncc3)n2)CC1 [Example 239, 6-[(3-{[1-(Propan-2-yl)piperidin-4-yl]amino}propyl)amino]-N-(pyridin-4-yl)pyridine-2-carboxamide]
pKi: 6.30 to 7.00

Cc1ccccc1CN1CCCC(N2CCN(c3cccc(C(=O)Nc4ccncc4)n3)CC2)CC1 (centres unmarked) [Example 240, 6-(4-{1-[(2-Methylphenyl)methyl]azepan-4-yl}piperazin-1-yl)-N-(pyridin-4-yl)pyridine-2-carboxamide]
pKi: 7.00 to 7.70

O=C(Nc1ccncc1)c1cccc(N2CCN(C3CCCN(Cc4ccc(F)cc4Cl)CC3)CC2)n1 (centres unmarked) [Example 241, 6-(4-{1-[(2-Chloro-4-fluorophenyl)methyl]azepan-4-yl}piperazin-1-yl)-N-(pyridin-4-yl)pyridine-2-carboxamide]
pKi: 7.00 to 7.70

CC(C)N1CCCC(N2CCN(c3cccc(C(=O)Nc4ccncc4)n3)CC2)CC1 (centres unmarked) [Example 242, 6-{4-[1-(Propan-2-yl)azepan-4-yl]piperazin-1-yl}-N-(pyridin-4-yl)pyridine-2-carboxamide]
pKi: 6.30 to 7.00

Cc1nc(-c2cccc(N3CCN(C4CCCN(C(C)C)CC4)CC3)n2)[nH]c1C1CC1 (centres unmarked) [Example 243, 4-{4-[6-(5-Cyclopropyl-4-methyl-1H-imidazol-2-yl)pyridin-2-yl]piperazin-1-yl}-1-(propan-2-yl)azepane]
pKi: 6.30 to 7.00

CC(C)N1CCO[C@H](CN2CCCN(c3cccc(C(=O)Nc4ccncc4)n3)CC2)C1 [Example 244, 6-(4-{[(2R)-4-(Propan-2-yl)morpholin-2-yl]methyl}-1,4-diazepan-1-yl)-N-(pyridin-4-yl)pyridine-2-carboxamide]
pKi: 7.00 to 7.70

Cc1nc(-c2cccc(N3CCN(C4CCCN(C5CCCC5)CC4)CC3)n2)[nH]c1C1CC1 (centres unmarked) [Example 245, 1-Cyclopentyl-4-{4-[6-(5-cyclopropyl-4-methyl-1H-imidazol-2-yl)pyridin-2-yl]piperazin-1-yl}azepane]
pKi: 7.00 to 7.70

Cc1nc(-c2cccc(NCCNC3CCCN(C4CCCC4)CC3)n2)[nH]c1C1CC1 (centres unmarked) [Example 246, 1-Cyclopentyl-N-(2-{[6-(5-cyclopropyl-4-methyl-1H-imidazol-2-yl)pyridin-2-yl]amino}ethyl)azepan-4-amine]
pKi: 7.00 to 7.70

Cc1nc(-c2cccc(NCCNC[C@@H]3CCN(C4CCCC4)C3)n2)[nH]c1C1CC1 [Example 247, {[(3S)-1-Cyclopentylpyrrolidin-3-yl]methyl}(2-{[6-(5-cyclopropyl-4-methyl-1H-imidazol-2-yl)pyridin-2-yl]amino}ethyl)amine]
pKi: 7.00 to 7.70

O=C(NCC1CC1)c1cccc(N2CCC(NCc3ccccc3Cl)CC2)n1 [Example 248, 6-(4-{[(2-Chlorophenyl)methyl]amino}piperidin-1-yl)-N-(cyclopropylmethyl)pyridine-2-carboxamide]
pKi: 6.00 to 6.30

CC(C)N1CCC(NC2CCN(c3cccc(C(=O)Nc4ccncc4)n3)CC2)CC1 [Example 249, 6-(4-{[1-(Propan-2-yl)piperidin-4-yl]amino}piperidin-1-yl)-N-(pyridin-4-yl)pyridine-2-carboxamide]
pKi: 6.30 to 7.00
